The source of these data is paper PMC6352943, “Novel pyrazolo[3,4-d]pyrimidines: design, synthesis, anticancer activity, dual EGFR/ErbB2 receptor tyrosine kinases inhibitory activity, effects on cell cycle profile and caspase-3-mediated apoptosis” (Journal of Enzyme Inhibition and Medicinal Chemistry, 2019).

The subject of one data set is IGROV1. Briefly: NCI 60 cell line single dose screen (SRB). Format: cell-based. The following applies: Homo sapiens, IGROV-1; IGROV1 (ovarian cancer), single dose 10^−5 M, 48 h; read-out: Growth inhibition percentage. The gist of the method: (§1)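 Cells were plated and grown 24 h at 37 °C, 5% CO2 before compound addition from DMSO stock, then exposed 48 h. Adherent cells were fixed with cold TCA (final 10%) and suspension cells with 16% TCA. SRB-stained protein was read at 515 nm and percent growth was calculated against time-zero and untreated plates.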
With `Cc1nn(-c2ccc(F)cc2)c2ncnc(N)c12` [Compound 4, 1–(4-Fluorophenyl)-3-methyl-1H-pyrazolo[3,4-d]pyrimidin-4-amine], the inhibition at 10 µM was 11.1%.
Still for that read-out and setting: the value for `Cc1nn(-c2ccc(F)cc2)c2nc(N)nc(N)c12` [Compound 5, 1–(4-Fluorophenyl)-3-methyl-1H-pyrazolo[3,4-d]pyrimidine-4,6-diamine] was 6.71%.

The next data set relates to A549/ATCC. Briefly: NCI 60 cell line single dose screen (SRB). To be noted: Homo sapiens; A549/ATCC (non-small cell lung cancer), single dose 10^−5 M, 48 h; read-out: Growth inhibition percentage. Format: cell-based. A digest of the protocol: as §1
Turning to `Cc1nn(-c2ccc(F)cc2)c2ncnc(N)c12` [Compound 4, 1–(4-Fluorophenyl)-3-methyl-1H-pyrazolo[3,4-d]pyrimidin-4-amine], the inhibition at 10 µM is -4.88%.
The same measure, in the same setting: the value for `Cc1nn(-c2ccc(F)cc2)c2nc(N)nc(N)c12` [Compound 5, 1–(4-Fluorophenyl)-3-methyl-1H-pyrazolo[3,4-d]pyrimidine-4,6-diamine] was -1.96%.

For another data set, the system named is SNB-75. Briefly: NCI 60 cell line single dose screen (SRB). The format is cell-based. The following applies: Homo sapiens; SNB-75 (CNS cancer), single dose 10^−5 M, 48 h; read-out: Growth inhibition percentage. The gist of the method: as §1
Regarding `Cc1nn(-c2ccc(F)cc2)c2ncnc(N)c12` [Compound 4, 1–(4-Fluorophenyl)-3-methyl-1H-pyrazolo[3,4-d]pyrimidin-4-amine], the inhibition at 10 µM amounted to 8.18%.
On the same count and under the same terms, to `Cc1nn(-c2ccc(F)cc2)c2nc(N)nc(N)c12` [Compound 5, 1–(4-Fluorophenyl)-3-methyl-1H-pyrazolo[3,4-d]pyrimidine-4,6-diamine] belongs 5.33%.

The next data set deals with CCRF-CEM. The data set can be described thus: NCI 60 cell line single dose screen (SRB). Format: cell-based. To be noted: Homo sapiens; CCRF-CEM (leukemia), single dose 10^−5 M, 48 h; read-out: Growth inhibition percentage. A digest of the protocol:
as §1
For `Cc1nn(-c2ccc(F)cc2)c2ncnc(N)c12` [Compound 4, 1–(4-Fluorophenyl)-3-methyl-1H-pyrazolo[3,4-d]pyrimidin-4-amine], the inhibition at 10 µM is -12.7%.
On the same count and under the same terms, to `Cc1nn(-c2ccc(F)cc2)c2nc(N)nc(N)c12` [Compound 5, 1–(4-Fluorophenyl)-3-methyl-1H-pyrazolo[3,4-d]pyrimidine-4,6-diamine] belongs -16.8%.

A further data set concerns HCT-15. The data set can be described thus: NCI 60 cell line single dose screen (SRB). Format: cell-based. The following applies: Homo sapiens; HCT-15 (colon cancer), single dose 10^−5 M, 48 h; read-out: Growth inhibition percentage. A digest of the protocol:
as §1
Consider `Cc1nn(-c2ccc(F)cc2)c2ncnc(N)c12` [Compound 4, 1–(4-Fluorophenyl)-3-methyl-1H-pyrazolo[3,4-d]pyrimidin-4-amine], for which the inhibition at 10 µM is -4.62%.
Consider `Cc1nn(-c2ccc(F)cc2)c2nc(N)nc(N)c12` [Compound 5, 1–(4-Fluorophenyl)-3-methyl-1H-pyrazolo[3,4-d]pyrimidine-4,6-diamine], for which the inhibition at 10 µM is -3.69%.

The test system of a further data set is SK-OV-3. Briefly: NCI 60 cell line single dose screen (SRB). The format is cell-based. The following applies: Homo sapiens; SK-OV-3 (ovarian cancer), single dose 10^−5 M, 48 h; read-out: Growth inhibition percentage. A digest of the protocol: as §1
As for `Cc1nn(-c2ccc(F)cc2)c2ncnc(N)c12` [Compound 4, 1–(4-Fluorophenyl)-3-methyl-1H-pyrazolo[3,4-d]pyrimidin-4-amine], the inhibition at 10 µM is -5.01%.
The same measure, in the same setting: to `Cc1nn(-c2ccc(F)cc2)c2nc(N)nc(N)c12` [Compound 5, 1–(4-Fluorophenyl)-3-methyl-1H-pyrazolo[3,4-d]pyrimidine-4,6-diamine] belongs -6.26%.

Another data set relates to SN12C. Briefly: NCI 60 cell line single dose screen (SRB). The following applies: Homo sapiens; SN12C (renal cancer), single dose 10^−5 M, 48 h; read-out: Growth inhibition percentage. The format is cell-based. A digest of the protocol: as §1
For the compound `Cc1nn(-c2ccc(F)cc2)c2ncnc(N)c12` [Compound 4, 1–(4-Fluorophenyl)-3-methyl-1H-pyrazolo[3,4-d]pyrimidin-4-amine], the inhibition at 10 µM is -1.4%.
Take `Cc1nn(-c2ccc(F)cc2)c2nc(N)nc(N)c12` [Compound 5, 1–(4-Fluorophenyl)-3-methyl-1H-pyrazolo[3,4-d]pyrimidine-4,6-diamine]: the inhibition at 10 µM is -2.74%.

The test system of another data set is NCI-H522. The data set can be described thus: NCI 60 cell line single dose screen (SRB). Format: cell-based. To be noted: Homo sapiens; NCI-H522 (non-small cell lung cancer), single dose 10^−5 M, 48 h; read-out: Growth inhibition percentage. A digest of the protocol:
as §1
For `Cc1nn(-c2ccc(F)cc2)c2ncnc(N)c12` [Compound 4, 1–(4-Fluorophenyl)-3-methyl-1H-pyrazolo[3,4-d]pyrimidin-4-amine], the inhibition at 10 µM worked out at 6.49%.
Same read-out and setting: the value for `Cc1nn(-c2ccc(F)cc2)c2nc(N)nc(N)c12` [Compound 5, 1–(4-Fluorophenyl)-3-methyl-1H-pyrazolo[3,4-d]pyrimidine-4,6-diamine] was 2.08%.

A further data set deals with M14. Briefly: NCI 60 cell line single dose screen (SRB). Format: cell-based. The following applies: Homo sapiens; M14 (melanoma), single dose 10^−5 M, 48 h; read-out: Growth inhibition percentage. A digest of the protocol: as §1
`Cc1nn(-c2ccc(F)cc2)c2ncnc(N)c12` [Compound 4, 1–(4-Fluorophenyl)-3-methyl-1H-pyrazolo[3,4-d]pyrimidin-4-amine]: the inhibition at 10 µM is -3.62%.
As to `Cc1nn(-c2ccc(F)cc2)c2nc(N)nc(N)c12` [Compound 5, 1–(4-Fluorophenyl)-3-methyl-1H-pyrazolo[3,4-d]pyrimidine-4,6-diamine], the inhibition at 10 µM is -2.93%.

In the next data set the test system is HL-60(TB). Briefly: NCI 60 cell line single dose screen (SRB). Format: cell-based. The following applies: Homo sapiens; HL-60(TB) (leukemia), single dose 10^−5 M, 48 h; read-out: Growth inhibition percentage. A digest of the protocol: as §1
Consider `Cc1nn(-c2ccc(F)cc2)c2ncnc(N)c12` [Compound 4, 1–(4-Fluorophenyl)-3-methyl-1H-pyrazolo[3,4-d]pyrimidin-4-amine], for which the inhibition at 10 µM worked out at 7.87%.
Still for that read-out and setting: to `Cc1nn(-c2ccc(F)cc2)c2nc(N)nc(N)c12` [Compound 5, 1–(4-Fluorophenyl)-3-methyl-1H-pyrazolo[3,4-d]pyrimidine-4,6-diamine] belongs 8.85%.

For another data set, the system named is HOP-92. Briefly: NCI 60 cell line single dose screen (SRB). Format: cell-based. To be noted: Homo sapiens; HOP-92 (non-small cell lung cancer), single dose 10^−5 M, 48 h; read-out: Growth inhibition percentage. A digest of the protocol: as §1
As to `Cc1nn(-c2ccc(F)cc2)c2ncnc(N)c12` [Compound 4, 1–(4-Fluorophenyl)-3-methyl-1H-pyrazolo[3,4-d]pyrimidin-4-amine], the inhibition at 10 µM was -1.54%.
The same measure, in the same setting: the value for `Cc1nn(-c2ccc(F)cc2)c2nc(N)nc(N)c12` [Compound 5, 1–(4-Fluorophenyl)-3-methyl-1H-pyrazolo[3,4-d]pyrimidine-4,6-diamine] was 1.64%.

In the next data set the test system is BT-549. The data set can be described thus: NCI 60 cell line single dose screen (SRB). To be noted: Homo sapiens; BT-549 (breast cancer), single dose 10^−5 M, 48 h; read-out: Growth inhibition percentage. The format is cell-based. The gist of the method:
as §1
Regarding `Cc1nn(-c2ccc(F)cc2)c2ncnc(N)c12` [Compound 4, 1–(4-Fluorophenyl)-3-methyl-1H-pyrazolo[3,4-d]pyrimidin-4-amine], the inhibition at 10 µM is 9.79%.
As for `Cc1nn(-c2ccc(F)cc2)c2nc(N)nc(N)c12` [Compound 5, 1–(4-Fluorophenyl)-3-methyl-1H-pyrazolo[3,4-d]pyrimidine-4,6-diamine], the inhibition at 10 µM is -17.4%.

Another data set relates to SNB-19. The data set can be described thus: NCI 60 cell line single dose screen (SRB). Format: cell-based. To be noted: Homo sapiens; SNB-19 (CNS cancer), single dose 10^−5 M, 48 h; read-out: Growth inhibition percentage. A digest of the protocol:
as §1
Consider `Cc1nn(-c2ccc(F)cc2)c2ncnc(N)c12` [Compound 4, 1–(4-Fluorophenyl)-3-methyl-1H-pyrazolo[3,4-d]pyrimidin-4-amine], for which the inhibition at 10 µM is -9.19%.
In the case of `Cc1nn(-c2ccc(F)cc2)c2nc(N)nc(N)c12` [Compound 5, 1–(4-Fluorophenyl)-3-methyl-1H-pyrazolo[3,4-d]pyrimidine-4,6-diamine], the inhibition at 10 µM was -7.94%.

Another data set relates to TK-10. The data set can be described thus: NCI 60 cell line single dose screen (SRB). To be noted: Homo sapiens; TK-10 (renal cancer), single dose 10^−5 M, 48 h; read-out: Growth inhibition percentage. Format: cell-based. The gist of the method:
as §1
Regarding `Cc1nn(-c2ccc(F)cc2)c2ncnc(N)c12` [Compound 4, 1–(4-Fluorophenyl)-3-methyl-1H-pyrazolo[3,4-d]pyrimidin-4-amine], the inhibition at 10 µM was -4.14%.
As to `Cc1nn(-c2ccc(F)cc2)c2nc(N)nc(N)c12` [Compound 5, 1–(4-Fluorophenyl)-3-methyl-1H-pyrazolo[3,4-d]pyrimidine-4,6-diamine], the inhibition at 10 µM was -13%.

Another data set deals with UO-31. Briefly: NCI 60 cell line single dose screen (SRB). To be noted: Homo sapiens; UO-31 (renal cancer), single dose 10^−5 M, 48 h; read-out: Growth inhibition percentage. Format: cell-based. A digest of the protocol:
as §1
In the case of `Cc1nn(-c2ccc(F)cc2)c2ncnc(N)c12` [Compound 4, 1–(4-Fluorophenyl)-3-methyl-1H-pyrazolo[3,4-d]pyrimidin-4-amine], the inhibition at 10 µM is 11.3%.
For the compound `Cc1nn(-c2ccc(F)cc2)c2nc(N)nc(N)c12` [Compound 5, 1–(4-Fluorophenyl)-3-methyl-1H-pyrazolo[3,4-d]pyrimidine-4,6-diamine], the inhibition at 10 µM turned out to be 14.2%.

The next data set has as its system SF-593. Briefly: NCI 60 cell line single dose screen (SRB). The format is cell-based. The following applies: Homo sapiens, SF-593 (CNS cancer), single dose 10^−5 M, 48 h, read-out: Growth inhibition percentage. A digest of the protocol: as §1
Take `Cc1nn(-c2ccc(F)cc2)c2ncnc(N)c12` [Compound 4, 1–(4-Fluorophenyl)-3-methyl-1H-pyrazolo[3,4-d]pyrimidin-4-amine]: the inhibition at 10 µM was -1.06%.
On the same count and under the same terms, to `Cc1nn(-c2ccc(F)cc2)c2nc(N)nc(N)c12` [Compound 5, 1–(4-Fluorophenyl)-3-methyl-1H-pyrazolo[3,4-d]pyrimidine-4,6-diamine] belongs 2.81%.

System in the next data set: not given
Assay: not given
Details: not given
`Cc1nn(-c2ccc(F)cc2)c2ncnc(N)c12` [Compound 4, 1–(4-Fluorophenyl)-3-methyl-1H-pyrazolo[3,4-d]pyrimidin-4-amine] returned a melting point greater than 300 °C.
Same read-out and setting: the value for `Cc1nn(-c2ccc(F)cc2)c2nc(N)nc(N)c12` [Compound 5, 1–(4-Fluorophenyl)-3-methyl-1H-pyrazolo[3,4-d]pyrimidine-4,6-diamine] was greater than 300 °C.

Broadly, the inhibition is the change of the read-out against control, counted positive when it falls. By melting point is commonly meant the temperature, or range, at which the solid turns liquid.
